Experiment [1] concerns EC-108 (thiC 1-108 nascent transcript) (RNA, riboswitch) UAAUUUCUUGUCGGAGUGCCUUAACUGGCUGAGACCGUUUAUUCGGGAUCCGCGGAACCUGAUCAGGCUAAUACCUGCGAAGGGAACAAGAGUUAAUCUGCUAUCGCA
Nature of the experiment: RNase H cleavage of stalled elongation complex, P1 probe. The note with it: 20 mM MgCl2, 20 mM NaCl (transcription); 20 mM MgCl2, 100 mM KCl (RNase H step); Tris-HCl pH 8.0, 37 °C; 10 μM TPP; cleavage ratio 6.7; RNAP bound.

Experiment [2] deals with 158 nt thiC transcript (without RNAP) (RNA, riboswitch) UAAUUUCUUGUCGGAGUGCCUUAACUGGCUGAGACCGUUUAUUCGGGAUCCGCGGAACCUGAUCAGGCUAAUACCUGCGAAGGGAACAAGAGUUAAUCUGCUAUCGCAUCGCCCCUGCGGCGAUCGUCUCUUGCUUCAUCCGUCGUCUGACAAGCCAC
In words: RNase H cleavage of free transcript. The note with it: 20 mM MgCl2, 20 mM NaCl (transcription); 20 mM MgCl2, 100 mM KCl (RNase H step); Tris-HCl pH 8.0, 37 °C; 10 μM TPP; cleavage ratio 3.4; less efficient than EC-158.

Experiment [3] relates to EC-197 (thiC 1-197 nascent transcript) (RNA, riboswitch) UAAUUUCUUGUCGGAGUGCCUUAACUGGCUGAGACCGUUUAUUCGGGAUCCGCGGAACCUGAUCAGGCUAAUACCUGCGAAGGGAACAAGAGUUAAUCUGCUAUCGCAUCGCCCCUGCGGCGAUCGUCUCUUGCUUCAUCCGUCGUCUGACAAGCCACGUCCUUAACUUUUUGGAAUGAGCUAUGUCUGCAACAAAA
Nature of the experiment: RNase H cleavage of stalled elongation complex, P1 probe. The note with it: 20 mM MgCl2, 20 mM NaCl (transcription); 20 mM MgCl2, 100 mM KCl (RNase H step); Tris-HCl pH 8.0, 37 °C; 10 μM TPP; RNAP bound; sensing partially recovered.

For experiment [4], the system named is 143 nt thiC transcript (without RNAP) (RNA, riboswitch) UAAUUUCUUGUCGGAGUGCCUUAACUGGCUGAGACCGUUUAUUCGGGAUCCGCGGAACCUGAUCAGGCUAAUACCUGCGAAGGGAACAAGAGUUAAUCUGCUAUCGCAUCGCCCCUGCGGCGAUCGUCUCUUGCUUCAUCCGU
Nature of the experiment: RNase H cleavage of free transcript. The note with it: 20 mM MgCl2, 20 mM NaCl (transcription); 20 mM MgCl2, 100 mM KCl (RNase H step); Tris-HCl pH 8.0, 37 °C; 10 μM TPP; cleavage ratio higher than 158 nt transcript.

Experiment [5] has as its system EC-207 (thiC 1-207 nascent transcript) (RNA, riboswitch) UAAUUUCUUGUCGGAGUGCCUUAACUGGCUGAGACCGUUUAUUCGGGAUCCGCGGAACCUGAUCAGGCUAAUACCUGCGAAGGGAACAAGAGUUAAUCUGCUAUCGCAUCGCCCCUGCGGCGAUCGUCUCUUGCUUCAUCCGUCGUCUGACAAGCCACGUCCUUAACUUUUUGGAAUGAGCUAUGUCUGCAACAAAACUGACCCGCC
Nature of the experiment: RNase H cleavage of stalled elongation complex, P1 probe. Particulars: 20 mM MgCl2, 20 mM NaCl (transcription); 20 mM MgCl2, 100 mM KCl (RNase H step); Tris-HCl pH 8.0, 37 °C; 10 μM TPP; RNAP bound; sensing partially recovered.

Experiment [6] deals with EC-100 (thiC 1-100 nascent transcript) (RNA, riboswitch) UAAUUUCUUGUCGGAGUGCCUUAACUGGCUGAGACCGUUUAUUCGGGAUCCGCGGAACCUGAUCAGGCUAAUACCUGCGAAGGGAACAAGAGUUAAUCUG
Described as above. Particulars: 20 mM MgCl2, 20 mM NaCl (transcription); 20 mM MgCl2, 100 mM KCl (RNase H step); Tris-HCl pH 8.0, 37 °C; 10 μM TPP; cleavage ratio 1.3; RNAP bound.

Each structure is given as a SMILES string.

On to `Cc1ncc(C[n+]2csc(CCOP(=O)(O)OP(=O)(O)O)c2C)c(N)n1`, for which the binding entry in experiment [1] is on record as “yes”; in experiment [2] it was “yes”; in experiment [3], “yes”; in experiment [4], “yes”; in experiment [5], “yes”; in experiment [6] it was “weak”.

The values are drawn from PMC5234074 (2017).
